The values below come from US11180481B2, “Oxopiperazine helix mimetics as inhibitors of the p53-MDM2 interaction” (NEW YORK UNIVERSITY, priority 2014, dated 2021).

This assay addresses T1, N-terminal His6-tagged Mdm225-117 (Homo sapiens, UniProt Q00987).
T1 construct: 25-117 fusion protein; made in house; host or cells: E. coli BL21 DE3 pLySS, pET-14B vector
The assay can be described thus: Fluorescence polarization competitive binding assay with fluorescein labeled p53 peptide (Flu-p53). Conditions: for fold decrease in binding affinity: relative to 18 (3-chloro-phenylalanine at R1). As for the experimental part: The relative affinities of peptides for N-terminal His6-tagged Mdm225-117 were determined using fluorescence polarization based competitive binding assay with fluorescein labeled p53 peptide, Flu-p53. The polarization experiments were performed with a DTX 880 Multimode Detector (Beckman) at 25° C., with excitation and emission wavelengths at 485 nm and 535 nm, respectively. All samples were prepared in 96 well plates in 0.1% pluronic F-68 (Sigma).
For competition binding experiments, a solution of 250 nM Mdm2 and 15 nM Flu-p53 in buffer (10 mM PBS pH 7.4, 5 mM EDTA, 0.5 mM DTT, 0.1% pluronic F-68) was incubated at 25° C. in a 96 well plate. After 30 minutes, appropriate concentrations of the oxopiperazine (1 nM-100 μM) were added to the Mdm2-Flu-p53 mixture and the resulting mixtures were incubated at 25° C. for 1 hour before measuring the degree of dissociation of Flu-p53 by polarization. The EC50 was fit into equation (2) to calculate the Ki value of the oxopiperazine. Ki=KD1*FSB*((LT/(LST*FSB2−(KD1+LST+RT)*FSB+RT))−1(1−FSB)) (2)
where: • KD=KD of fluorescent probe Flu-p53 • RT=Total concentration of Mdm2 protein • LST=total concentration of p53 fluorescent peptide • FSB=Fraction of bound […] (at EC50) • LT=total concentration of oxopiperazine (EC50)
The binding affinity (KD) values reported for each peptide are the averages of 3-5 individual experiments, and were determined by fitting the experimental data to a sigmoidal dose-response nonlinear regression model on GraphPad Prism 5.0 (Roehrl et al., Biochemistry 43:16056 (2004), which is hereby incorporated by reference in its entirety).
A previously-described fluorescence polarization competition assay with a fluorescein-labeled p53 peptide was utilized to probe the binding affinity of the mimetics (Henchey et al., ChemBiochem 11:2104 (2010); Knight et al., Anal. Biochem. 300:230 (2002), each of which is hereby incorporated by reference in its entirety). […] To examine the effect of the R3 position on the binding properties, a series of compounds was designed in which this position was changed to hydrophobic, anionic, or cationic residues. These studies were performed in the context of the dimers (1-4) as well as oxopiperazine monomers linked to uncyclized dipeptides (see Table 4, supra). […] Importantly, comparisons of dimers 3 (FWLL) and 4 (FWFL) with the monomer-dipeptide sequences 11 and 12 support the hypothesis that cyclization of dipeptides in oxopiperazine rings provides a significant boost to the ability of these helix mimetics to target protein pockets Ramachandran Plots (Ramachandran & Sasisekharan, Adv. Protein Chem. 23:283 (1968), which is hereby incorporated by reference in its entirety) obtained from quantum mechanical calculations further illustrate the flexibility of the uncyclized derivative (FIGS. 9C-D) as compared to the cyclic dimer (FIGS. 9A-B).
On the technique in general: Fluorescence polarisation rises when a labelled molecule tumbles more slowly, as on binding a larger partner.

Setting [1] is: Table 3, oxopiperazine dimers, competitive fluorescence polarization assay, read-out: Kd (μM), binding affinity for Mdm2.
Where [2] appears, read: Table 5, restated by sequence, read-out: Experimental Kd.
[3] abbreviates: Table 6, computationally predicted dimers, competitive fluorescence polarization assay, read-out: Kd (μM), binding affinity for Mdm2.

Molecules are shown by their SMILES. Where two headings read alike, the source gives them in different places.

As for `CC(C)C[C@@H](C(=O)O)N1CCN(C(=O)[C@H](Cc2c[nH]c3ccccc23)N2CCN[C@@H](Cc3ccccc3)C2=O)[C@@H](C)C1=O` [Mimetic 1, FWAL-OH], the Kd turned out to be 65.4 ± 0.28 µM under setting [1]; 3.1 ± 2.4 µM (oxopiperazine trimers, method not stated, read-out: Kd2); 65 µM (read-out: dissociation constant, Kd). As for `CC(C)C[C@@H](C(=O)O)N1CCN(C(=O)[C@H](Cc2c[nH]c3ccccc23)N2CCN[C@@H](Cc3ccccc3)C2=O)[C@@H](CCCCN)C1=O` [Mimetic 2, FWKL-OH], the “binding to Mdm2, in words” value is on record as “appreciably lower affinity”. Take `CC(C)C[C@@H](C(N)=O)N1CCN(C(=O)[C@H](Cc2c[nH]c3ccccc23)N2CCN[C@@H](Cc3ccccc3)C2=O)[C@@H](Cc2ccccc2)C1=O` [Mimetic 5, FWFL-NH2]: under setting [1], the Kd was found to be 2.88 ± 0.12 µM. In the case of `NCCCC[C@@H](C(N)=O)N1CCN(C(=O)[C@H](Cc2c[nH]c3ccccc23)N2CCN[C@@H](Cc3ccccc3)C2=O)[C@@H](Cc2ccccc2)C1=O` [Mimetic 6, FWFK-NH2], the “binding to Mdm2, in words” value is listed as “rather poor binder”. Take `CC(C)C[C@@H](C(N)=O)N1CCN(C(=O)[C@H](Cc2c[nH]c3ccccc23)N2CCN[C@@H](CCCCN)C2=O)[C@@H](Cc2ccccc2)C1=O` [Mimetic 7, KWFL-NH2]: the “binding to Mdm2, in words” value is “poor binder”. `CC(C)C[C@@H](C(N)=O)N1CCN(C(=O)[C@H](C)N2CCN[C@@H](Cc3ccccc3)C2=O)[C@@H](Cc2ccccc2)C1=O` [Mimetic 8, FAFL-NH2]: the Kd under setting [1] was 63.9 ± 6.8 µM.

For the molecule `CCCC[C@@H](C(N)=O)N1CCN(C(=O)[C@H](Cc2c[nH]c3ccccc23)N2CCN[C@@H](Cc3ccccc3)C2=O)[C@@H](Cc2ccccc2)C1=O` [Mimetic 13, FWF(Nle)-NH2], the Kd under setting [2] was determined as 2.46 µM. With `CC(C)C[C@@H](C(N)=O)N1CCN(C(=O)[C@H](Cc2c[nH]c3ccccc23)N2CCN[C@@H](Cc3cccc4ccccc34)C2=O)[C@@H](Cc2ccccc2)C1=O` [Mimetic 15, (Nap)WFL-NH2], the Kd under setting [2] was 0.85 µM. The “fold higher affinity than 5” value (relative to mimetic 5) is listed as “three-fold higher affinity”. Regarding `CC(C)C[C@@H](C(N)=O)N1CCN(C(=O)[C@H](Cc2c[nH]c3ccccc23)N2CCN[C@@H](Cc3ccc(O)cc3)C2=O)[C@@H](Cc2ccccc2)C1=O` [Mimetic 16, YWFL-NH2], the Kd under setting [2] was found to be 0.4 µM and the Kd (read-out: ligand for Mdm2 (affinity)) was found to be 0.4 µM. For the molecule `COc1ccc(C[C@@H]2NCCN([C@@H](Cc3c[nH]c4ccccc34)C(=O)N3CCN([C@@H](CC(C)C)C(N)=O)C(=O)[C@@H]3Cc3ccccc3)C2=O)cc1` [Mimetic 17, Y(O—Me)WFL-NH2], the “binding to Mdm2, in words” value is listed as “slightly better than 16”. Under setting [3], the Kd is 0.32 ± 0.01 µM. For `CC(C)C[C@@H](C(N)=O)N1CCN(C(=O)[C@H](Cc2c[nH]c3ccccc23)N2CCN[C@@H](Cc3cccc(Cl)c3)C2=O)[C@@H](Cc2ccccc2)C1=O` [Mimetic 18, F(3-Cl)WFL-NH2], the “binding to Mdm2, in words” value was “slightly better than 16”. Besides, the Kd under setting [2] was determined as 0.33 µM. For the molecule `Cc1cccc(C[C@@H]2NCCN([C@@H](Cc3c[nH]c4ccccc34)C(=O)N3CCN([C@@H](CC(C)C)C(N)=O)C(=O)[C@@H]3Cc3ccccc3)C2=O)c1` [Mimetic 19, F(3-Me)WFL-NH2], the “fold decrease in binding affinity” value came to 8 fold. For the same molecule, under setting [2], the Kd amounted to 2.6 µM.

With `CC(C)C[C@@H](C(N)=O)N1CCN(C(=O)[C@H](Cc2c[nH]c3ccccc23)N2CCN[C@@H](Cc3ccc(Cl)cc3)C2=O)[C@@H](Cc2ccccc2)C1=O` [Mimetic 20, F(4-Cl)WFL-NH2], the “fold decrease in binding affinity” value is listed as 4 fold. Moreover, under setting [3], the Kd is 1.29 ± 0.06 µM.
